Data reported in ChEMBL document CHEMBL1152065, “Synthesis and anti-HIV activity of 9-[(2R-5R)-2,5-dihydro-5-(phosphonomethoxy)-2-furanyl]-2,6-diaminopurine” (Bioorg Med Chem Lett, 1992).
Several values for one entry are separate records, joined by “and”; a condition that tells them apart may be missing. Equal values may be shown once.

What was measured:
[1] = tested on: MT4; test: Compound was evaluated for its ability to Inhibit HIV replication in MT-4 cells; assay type: functional, cell-based, Homo sapiens
[2] = Concentration of compound affecting viability of the uninfected cells by 50% when assayed in parallel with antiviral assay in MT-4 cells; assay type: cell-based, MT4; conditions: human, uninfected MT-4 cells; read-out: TC50 (the source's name)
[3] = tested on: MT4; test: The compound was evaluated for its ability to Inhibit HIV replication in MT-4 cells; assay type: functional, cell-based; conditions: Homo sapiens

SMILES	IC50 ([1]; Homo sapiens, MT4)	CC50 [2]	IC50 [3]	IC50 ([1]; mt4)
Nc1nc(N)c2ncn([C@H]3C=C[C@@H](OCP(=O)(O)O)O3)c2n1	82.5 µM	> 100 µM	–	–
Nc1ncnc2c1ncn2[C@H]1C=C[C@@H](OCP(=O)(O)O)O1	4.3 µM	> 100 µM	–	–
Nc1nc(N)c2ncn(CCOCP(=O)(O)O)c2n1 [PMEDAP]	–	–	1 µM	–
Nc1ncnc2c1ncn2CCOCP(=O)(O)O [ADEFOVIR]	–	40 µM	–	6.5 µM and 2 µM
